Experimental data as given in PMC7932537, “Quantitative profiling of protease specificity” (PLoS Computational Biology, 2021).

target: MMP-9 (Homo sapiens, UniProt P14780); test: K(obs) of individual phage substrates (set of 1369); type: biochemical; conditions: MMP9; individual phage substrates, set of 1369 peptides; '-' marks the cleavage position (P1-P1')
Sequence (P14780 94-707): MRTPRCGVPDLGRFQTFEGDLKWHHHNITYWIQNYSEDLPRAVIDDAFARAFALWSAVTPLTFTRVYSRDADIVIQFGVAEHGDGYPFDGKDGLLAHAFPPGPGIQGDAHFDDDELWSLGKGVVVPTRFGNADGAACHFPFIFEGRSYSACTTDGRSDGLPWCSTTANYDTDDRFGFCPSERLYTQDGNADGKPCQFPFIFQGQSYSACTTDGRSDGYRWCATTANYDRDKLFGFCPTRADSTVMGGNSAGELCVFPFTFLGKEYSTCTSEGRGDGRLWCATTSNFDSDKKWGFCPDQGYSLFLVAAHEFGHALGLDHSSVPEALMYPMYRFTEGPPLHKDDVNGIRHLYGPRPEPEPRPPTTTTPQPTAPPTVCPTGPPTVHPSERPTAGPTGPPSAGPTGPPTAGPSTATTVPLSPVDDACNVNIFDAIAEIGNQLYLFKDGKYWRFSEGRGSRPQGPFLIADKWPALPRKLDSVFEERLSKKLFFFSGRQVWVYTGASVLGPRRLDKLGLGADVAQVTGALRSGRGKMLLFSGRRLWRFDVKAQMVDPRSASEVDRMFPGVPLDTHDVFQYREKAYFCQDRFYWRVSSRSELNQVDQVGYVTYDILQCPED

Substance | Kobs
GGLGM-MLTAS | 0 M⁻¹ s⁻¹
SGVLS-LRYTA | 2837.92 M⁻¹ s⁻¹
SGALG-LLETA | 171.876 M⁻¹ s⁻¹
GVVHS-FCTAS | 0 M⁻¹ s⁻¹
SDIRW-LTASG | 4335.13 M⁻¹ s⁻¹
SGSWS-LILTA | 0 M⁻¹ s⁻¹
GVLHS-LRTAS | 0 M⁻¹ s⁻¹
GYYGE-LLTAS | 27.918 M⁻¹ s⁻¹
SGSFN-LTMTA | 418.952 M⁻¹ s⁻¹
IEYLN-YTASG | 355.093 M⁻¹ s⁻¹
GQPVP-MLTAS | 6131.32 M⁻¹ s⁻¹
GCLMA-LTTAS | 2837.92 M⁻¹ s⁻¹
GGSGR-LVVRL | 0 M⁻¹ s⁻¹
GGSGP-LMLPF | 517.582 M⁻¹ s⁻¹
DVAFH-LTASG | 1283.43 M⁻¹ s⁻¹
GALDW-MSTAS | 0 M⁻¹ s⁻¹
GPVMR-MSTAS | 0 M⁻¹ s⁻¹
SIPNA-LTASG | 9740.44 M⁻¹ s⁻¹
GGSGA-LQVPT | 56.119 M⁻¹ s⁻¹
NKTAW-LTASG | 799.117 M⁻¹ s⁻¹
SGAQA-LTLTA | 113.394 M⁻¹ s⁻¹

same assay, conditions: MMP9; individual phage substrates, set of 1369 peptides; dash in sequence marks cleavage position

Substance | Kobs
SGVMR-LVVTA | 171.876 M⁻¹ s⁻¹
GGSGR-LVMTY | 261.974 M⁻¹ s⁻¹
GEAWH-LFTAS | 355.093 M⁻¹ s⁻¹
SGVKF-LFNTA | 113.394 M⁻¹ s⁻¹
GEVWR-LHTAS | 0 M⁻¹ s⁻¹
RGPVF-LTASG | 10866.7 M⁻¹ s⁻¹
KPVSA-LTASG | 551.253 M⁻¹ s⁻¹
HWPRF-LTASG | 10866.7 M⁻¹ s⁻¹

target: T1, MMP-2 (Homo sapiens, UniProt P08253); test: as above; type: biochemical; conditions: MMP2; individual phage substrate from the set of 1369 peptides; cleavage position marked by the dash in the sequence
T1 sequence (P08253 110-660): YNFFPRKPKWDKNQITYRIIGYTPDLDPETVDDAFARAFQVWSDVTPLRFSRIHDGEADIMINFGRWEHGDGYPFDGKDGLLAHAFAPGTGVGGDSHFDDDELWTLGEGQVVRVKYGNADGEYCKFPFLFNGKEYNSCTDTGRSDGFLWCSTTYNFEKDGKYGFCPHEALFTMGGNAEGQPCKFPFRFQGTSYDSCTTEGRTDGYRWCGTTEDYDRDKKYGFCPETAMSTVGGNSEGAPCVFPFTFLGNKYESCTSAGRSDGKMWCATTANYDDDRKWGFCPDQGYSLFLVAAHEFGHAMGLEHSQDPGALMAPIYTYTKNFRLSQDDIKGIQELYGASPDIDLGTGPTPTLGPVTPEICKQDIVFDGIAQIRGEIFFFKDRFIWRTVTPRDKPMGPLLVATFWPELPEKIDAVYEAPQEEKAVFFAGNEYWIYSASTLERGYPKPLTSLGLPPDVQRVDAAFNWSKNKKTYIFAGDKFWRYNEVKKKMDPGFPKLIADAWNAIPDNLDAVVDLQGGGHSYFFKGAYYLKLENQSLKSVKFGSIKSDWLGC

Substance | Kobs
SGVMR-LVVTA | 0 M⁻¹ s⁻¹
GGSGR-LVMTY | 142.481 M⁻¹ s⁻¹
GEAWH-LFTAS | 292.668 M⁻¹ s⁻¹
SGVKF-LFNTA | 0 M⁻¹ s⁻¹
GEVWR-LHTAS | 56.119 M⁻¹ s⁻¹
RGPVF-LTASG | 10866.7 M⁻¹ s⁻¹
KPVSA-LTASG | 12792.1 M⁻¹ s⁻¹
HWPRF-LTASG | 10866.7 M⁻¹ s⁻¹

same assay, conditions: MMP2; individual phage substrates, set of 1369 peptides; cleavage position marked by '-' in the sequence

Substance | Kobs
GGLGM-MLTAS | 836.403 M⁻¹ s⁻¹
SGVLS-LRYTA | 1154.21 M⁻¹ s⁻¹
SGALG-LLETA | 171.876 M⁻¹ s⁻¹
GVVHS-FCTAS | 0 M⁻¹ s⁻¹
SDIRW-LTASG | 7386.83 M⁻¹ s⁻¹
SGSWS-LILTA | 0 M⁻¹ s⁻¹
GVLHS-LRTAS | 0 M⁻¹ s⁻¹
GYYGE-LLTAS | 990.764 M⁻¹ s⁻¹
SGSFN-LTMTA | 0 M⁻¹ s⁻¹
IEYLN-YTASG | 231.616 M⁻¹ s⁻¹
GQPVP-MLTAS | 7386.83 M⁻¹ s⁻¹
GCLMA-LTTAS | 6131.32 M⁻¹ s⁻¹
GGSGR-LVVRL | 113.394 M⁻¹ s⁻¹
GGSGP-LMLPF | 3964.21 M⁻¹ s⁻¹
DVAFH-LTASG | 1925.41 M⁻¹ s⁻¹
GALDW-MSTAS | 0 M⁻¹ s⁻¹
GPVMR-MSTAS | 0 M⁻¹ s⁻¹
SIPNA-LTASG | 12792.1 M⁻¹ s⁻¹
GGSGA-LQVPT | 0 M⁻¹ s⁻¹
NKTAW-LTASG | 7386.83 M⁻¹ s⁻¹
SGAQA-LTLTA | 171.876 M⁻¹ s⁻¹

tested on: MMP-2; test: Substrate phage display with NGS: relative probability (RP) of P3-P1' tetramer clusters; type: biochemical, human; conditions: MMP2 - no binning; average relative probability (RP) of the P3-P1' tetramer; redundant tetramers have been averaged out

Substance | avg_RP
LWRI | 0
FATL | 9.1497
SMYL | 1.2279
VWKL | 0.2836
ADLI | 0.5875
PWGL | 31.3204
GRPL | 5.2852
PYLL | 11.898
VWGL | 12.3495
ANSI | 0.424
THHL | 0.3701
VWHL | 10.1663
GDRL | 0
SLRL | 0
SWPL | 0.4201
PFMI | 4.6361
GAWL | 11.7256
AENL | 6.7504
VLFL | 1.6486
GNFL | 0.2435
PAWL | 34.876
IDLL | 0.1325
INQL | 1.5518
IYGL | 9.4242
PLNL | 34.7054
PLRI | 15.7039
HMHM | 0
VMRL | 0.4281
AHHL | 16.717

same assay, conditions: MMP2 - no binning; average relative probability of the P3-P1' tetramer; redundant tetramers have been averaged out

Substance | avg_RP
GMRL | 0
PLSQ | 26.5842
FGNL | 26.0275
TRNL | 12.3403
SWSL | 0.0547
PQSW | 25.7009
YANL | 27.7486
GLAL | 0.6848
VFWM | 10.3215
LTHL | 4.2994
WAPL | 23.9342
SYWL | 0.9791
PAGL [P3-P1' tetramer cluster] | 36.0156
AQDL | 0.5121
PFFM | 3.5092
IFRL | 0.1412
LAHI | 25.9365

Substance | avg_RP
VAPL | 30.036
PLAL | 34.4921
LANL | 34.4823
VHRL | 1.5304
RRNL | 6.1579
WSGM | 18.3143
PLAS | 26.7589
GNRL | 0.0463
PHMM | 14.968
WQNL | 6.2916
ALHL | 14.6488
LNSL | 18.3633
SGNL | 12.7361
WLPI | 0.6666
LSRL | 14.3329
FWHL | 0

same assay, conditions: tetramer probability in MMP2 set / naive library; 200 nM protease, 2 h, 37°C

Substance | relative probability (RP)
PAGL [P3-P1' tetramer cluster] | 36.0156
